Data from PubChem BioAssay AID192 (DTP/NCI, 2004).
“And” between values parts separate entries of the source, which are not always exact repeats. Equal values may be shown once. Toxic doses and inconclusive results are not listed.

Tested on: BDF1 mice, B16 melanoma ip, median survival T/C
Experiment: NCI In Vivo Anticancer Drug Screen. Data for tumor model B16 Melanoma (intraperitoneal) in B6D2F1 (BDF1) mice
Conditions: endpoint: median survival time, higher = longer survival
Summary of the method: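 Antitumor activity is assessed in mice bearing a transplanted tumor, with survival or tumor size compared against vehicle-dosed controls and expressed as T/C.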

[1] = dose: 100.0 mg/kg/injection, schedule: Q01DX009 (ip), vehicle: saline with Tween-80
[2] = dose: 200.0 mg/kg/injection, schedule: Q01DX009 (ip), vehicle: saline with Tween-80
[3] = dose: 400.0 mg/kg/injection, schedule: Q01DX009 (ip), vehicle: saline with Tween-80
[4] = dose: 12.5 mg/kg/injection, schedule: Q01DX009 (ip), vehicle: carboxymethylcellulose (CMC)
[5] = dose: 25.0 mg/kg/injection, schedule: Q01DX009 (ip), vehicle: carboxymethylcellulose (CMC)
[6] = dose: 50.0 mg/kg/injection, schedule: Q01DX009 (ip), vehicle: carboxymethylcellulose (CMC)
[7] = dose: 100.0 mg/kg/injection, schedule: Q01DX009 (ip), vehicle: Klucel (hydroxypropylcellulose) (HPC)
[8] = dose: 50.0 mg/kg/injection, schedule: Q01DX009 (ip), vehicle: saline with Tween-80
[9] = dose: 6.25 mg/kg/injection, schedule: Q01DX009 (ip), vehicle: Klucel (hydroxypropylcellulose) (HPC)
[10] = dose: 25.0 mg/kg/injection, schedule: Q01DX009 (ip), vehicle: saline
[11] = dose: 50.0 mg/kg/injection, schedule: Q01DX009 (ip), vehicle: saline
[12] = dose: 100.0 mg/kg/injection, schedule: Q01DX009 (ip), vehicle: saline
[13] = dose: 6.25 mg/kg/injection, schedule: Q01DX009 (ip), vehicle: saline with Tween-80
[14] = dose: 12.5 mg/kg/injection, schedule: Q01DX009 (ip), vehicle: saline with Tween-80
[15] = dose: 200.0 mg/kg/injection, schedule: Q01DX009 (ip), vehicle: Klucel (hydroxypropylcellulose) (HPC)
[16] = dose: 100.0 mg/kg/injection, schedule: Q04DX003 (ip), vehicle: Klucel (hydroxypropylcellulose) (HPC)
[17] = dose: 200.0 mg/kg/injection, schedule: Q04DX003 (ip), vehicle: Klucel (hydroxypropylcellulose) (HPC)
[18] = dose: 400.0 mg/kg/injection, schedule: Q04DX003 (ip), vehicle: Klucel (hydroxypropylcellulose) (HPC)
[19] = dose: 25.0 mg/kg/injection, schedule: Q01DX009 (ip), vehicle: saline with Tween-80
[20] = dose: 50.0 mg/kg/injection, schedule: Q01DX009 (ip), vehicle: Klucel (hydroxypropylcellulose) (HPC)

CCOC(=O)C(C=O)(NC(=O)c1ccccc1)OCC (stereo unspecified)
T/C [1]: 102 % of control | T/C [2]: 97 % of control | T/C [3]: 100 % of control

O=c1[nH]/c(=C\c2ccc3c(c2)OCO3)c(=O)[nH]/c1=C\c1ccc2c(c1)OCO2
T/C [4]: 113 % of control | T/C [5]: 100 % of control | T/C [6]: 106 % of control | T/C [7]: 86 % of control

ClC(Cl)(Cl)C(N1CCN(c2ccccc2)CC1)N1CCN(c2ccccc2)CC1
T/C [8]: 113 % of control | T/C [1]: 96 % of control | T/C [2]: 112 % of control | T/C [3]: 91 % of control

Cl/C(=N\Nc1ccccc1)c1ccccc1
T/C (dose: 1.56 mg/kg/injection, schedule: Q01DX009 (ip), vehicle: Klucel (hydroxypropylcellulose) (HPC)): 97 % of control | T/C (dose: 3.13 mg/kg/injection, schedule: Q01DX009 (ip), vehicle: Klucel (hydroxypropylcellulose) (HPC)): 86 % of control | T/C [9]: 90 % of control

COc1ccc2c3c1OC1C4(CCC5C(C2)N(CC2CC2)CCC351)OCCO4 (stereo unspecified)
T/C [10]: 97 % of control | T/C [11]: 97 % of control | T/C [12]: 90 % of control

O=[N+]([O-])c1ccc(/C=N/c2ncc(Br)s2)o1
T/C [13]: 95 % of control | T/C [14]: 93 % of control

COC(=O)NC1C(C)OC(OC2C/C=C(/C)C3C=CC4C(OC5CC(OC6CCC(OC7CC(O)C(OC8CCC(O)C(C)O8)C(C)O7)C(C)O6)C(OC(C)=O)C(C)O5)C(C)CC(C)C4C3(C)/C(O)=C3/C(=O)OC4(CC(C=O)=CC(O)C4/C=C\2C)C3=O)CC1(C)[N+](=O)[O-] (stereo unspecified)
T/C (dose: 2.5 mg/kg/injection, schedule: Q01DX009 (ip), vehicle: water): 159 % of control | T/C (dose: 5.0 mg/kg/injection, schedule: Q01DX009 (ip), vehicle: water): 165 % of control | T/C (dose: 10.0 mg/kg/injection, schedule: Q01DX009 (ip), vehicle: water): 157 % of control

C=CCNC(=O)NCC=C
T/C [10]: 114 % of control | T/C [11]: 109 % of control | T/C [12]: 95 % of control | T/C (dose: 200.0 mg/kg/injection, schedule: Q01DX009 (ip), vehicle: saline): 100 % of control

C[C@H]1CCC/C=C/[C@@H]2C[C@H](O)C[C@H]2[C@H](O)/C=C/C(=O)O1
T/C (dose: 2.5 mg/kg/injection, schedule: Q01DX009 (ip), vehicle: Klucel (hydroxypropylcellulose) (HPC)): 116 % of control | T/C (dose: 5.0 mg/kg/injection, schedule: Q01DX009 (ip), vehicle: Klucel (hydroxypropylcellulose) (HPC)): 104 % of control | T/C (dose: 10.0 mg/kg/injection, schedule: Q01DX009 (ip), vehicle: Klucel (hydroxypropylcellulose) (HPC)): 103 % of control

CCOC(=O)CC1=CCCCC1
T/C (dose: 70.0 mg/kg/injection, schedule: Q01DX009 (ip), vehicle: Klucel (hydroxypropylcellulose) (HPC)): 100 % of control | T/C (dose: 140.0 mg/kg/injection, schedule: Q01DX009 (ip), vehicle: Klucel (hydroxypropylcellulose) (HPC)): 106 % of control | T/C (dose: 280.0 mg/kg/injection, schedule: Q01DX009 (ip), vehicle: Klucel (hydroxypropylcellulose) (HPC)): 100 % of control

[I][Ga]([I])[I]
T/C (dose: 12.5 mg/kg/injection, schedule: Q01DX009 (ip), vehicle: saline): 87 % of control | T/C [10]: 102 % of control

CC(C)N1C(=O)C=C(c2ccc([N+](=O)[O-])cc2)C1=O
T/C [14]: 95 % of control | T/C [8]: 99 % of control

CC1C=CCC(C)(C)C1 (stereo unspecified)
T/C (dose: 50.0 mg/kg/injection, schedule: Q01DX009 (ip), vehicle: other): 96 % of control | T/C [7]: 111 % of control | T/C (dose: 100.0 mg/kg/injection, schedule: Q01DX009 (ip), vehicle: other): 92 % of control | T/C (dose: 100.0 mg/kg/injection, schedule: Q04DX003 (ip), vehicle: saline): 88 % of control | T/C [15]: 104 % of control | T/C (dose: 200.0 mg/kg/injection, schedule: Q04DX003 (ip), vehicle: saline): 97 % of control | T/C (dose: 400.0 mg/kg/injection, schedule: Q01DX009 (ip), vehicle: Klucel (hydroxypropylcellulose) (HPC)): 105 % of control | T/C (dose: 400.0 mg/kg/injection, schedule: Q04DX003 (ip), vehicle: saline): 90 % of control

CC(=O)Nc1ccc(OC(=O)Nc2ccccc2Cl)cc1
T/C [16]: 93 % of control | T/C [17]: 113 % of control | T/C [18]: 106 % of control

Cc1cc([N+](=O)[O-])c(Cl)cc1NS(=O)(=O)c1ccccc1
T/C [19]: 95 % of control | T/C [8]: 93 % of control | T/C [1]: 90 % of control

CC1(C)C(C#N)C(=O)N=C(N)C1C(N)=O (stereo unspecified)
T/C (dose: 12.0 mg/kg/injection, schedule: Q04DX003 (ip), vehicle: Klucel (hydroxypropylcellulose) (HPC)): 105 % of control | T/C (dose: 25.0 mg/kg/injection, schedule: Q04DX003 (ip), vehicle: Klucel (hydroxypropylcellulose) (HPC)): 107 % of control | T/C (dose: 50.0 mg/kg/injection, schedule: Q04DX003 (ip), vehicle: Klucel (hydroxypropylcellulose) (HPC)): 105 % of control | T/C [16]: 86 % of control and 100 % of control | T/C [17]: 91 % of control

CC(=O)NC(=O)Nc1ccccc1
T/C [16]: 97 % of control | T/C [17]: 95 % of control | T/C [18]: 100 % of control

CC(=O)Nc1nc(=O)n(CC(=O)c2cccs2)cc1F
T/C (dose: 6.25 mg/kg/injection, schedule: Q01DX009 (ip), vehicle: carboxymethylcellulose (CMC)): 100 % of control | T/C [4]: 99 % of control | T/C [5]: 94 % of control | T/C [20]: 96 % of control | T/C [6]: 102 % of control

CCOC(=O)NC1=C(N2CC2)C(=O)C(NC(=O)OCC)=C(N2CC2)C1=O
T/C (dose: 0.13 mg/kg/injection, schedule: Q03HX016 (ip), vehicle: water): 96 % of control | T/C (dose: 0.25 mg/kg/injection, schedule: Q01DX009 (ip), vehicle: saline): 100 % of control | T/C (dose: 0.25 mg/kg/injection, schedule: Q03HX016 (ip), vehicle: water): 93 % of control | T/C (dose: 0.5 mg/kg/injection, schedule: Q01DX009 (ip), vehicle: saline): 110 % of control | T/C (dose: 0.75 mg/kg/injection, schedule: Q01DX009 (ip), vehicle: saline): 120 % of control | T/C (dose: 1.0 mg/kg/injection, schedule: Q01DX001 (oral), vehicle: water): 96 % of control | T/C (dose: 1.0 mg/kg/injection, schedule: Q03HX024 (ip), vehicle: water): 91 % of control | T/C (dose: 3.0 mg/kg/injection, schedule: Q01DX009 (ip), vehicle: saline with Tween-80): 162 % of control | T/C (dose: 3.0 mg/kg/injection, schedule: Q01DX009 (ip), vehicle: saline): 160 % of control | T/C (dose: 5.0 mg/kg/injection, schedule: Q01DX005 (ip), vehicle: saline with Tween-80): 194 % of control | T/C (dose: 16.0 mg/kg/injection, schedule: Q01DX009 (oral), vehicle: water): 86 % of control

CCC(C)Nc1ccc(N)cc1 (stereo unspecified)
T/C (dose: 0.09 mg/kg/injection, schedule: Q01DX009 (ip), vehicle: Klucel (hydroxypropylcellulose) (HPC)): 97 % of control | T/C (dose: 0.18 mg/kg/injection, schedule: Q01DX009 (ip), vehicle: Klucel (hydroxypropylcellulose) (HPC)): 99 % of control | T/C (dose: 0.37 mg/kg/injection, schedule: Q01DX009 (ip), vehicle: Klucel (hydroxypropylcellulose) (HPC)): 89 % of control | T/C (dose: 0.75 mg/kg/injection, schedule: Q01DX009 (ip), vehicle: Klucel (hydroxypropylcellulose) (HPC)): 99 % of control

c1ccc([As+](c2ccccc2)(c2ccccc2)c2ccccc2)cc1
T/C (dose: 1.87 mg/kg/injection, schedule: Q01DX009 (ip), vehicle: Klucel (hydroxypropylcellulose) (HPC)): 122 % of control | T/C (dose: 3.75 mg/kg/injection, schedule: Q01DX009 (ip), vehicle: Klucel (hydroxypropylcellulose) (HPC)): 110 % of control

CNc1ccccc1Cc1ccccc1
T/C [20]: 103 % of control | T/C [7]: 90 % of control | T/C [15]: 99 % of control

CC(C)=CC(=O)OC1C2C(C)C(=O)OC2C(O)C(C)C2C=CC(=O)C21C (stereo unspecified)
T/C [9]: 95 % of control | T/C [13]: 91 % of control | T/C (dose: 12.5 mg/kg/injection, schedule: Q01DX009 (ip), vehicle: Klucel (hydroxypropylcellulose) (HPC)): 97 % of control | T/C [14]: 94 % of control | T/C (dose: 25.0 mg/kg/injection, schedule: Q01DX009 (ip), vehicle: Klucel (hydroxypropylcellulose) (HPC)): 93 % of control and 99 % of control | T/C [19]: 97 % of control

Cc1cc(C)c(NC(=O)Nc2ccc(Cl)cc2)c(C)c1
T/C [7]: 93 % of control | T/C [15]: 93 % of control
